Legend:
Assay in all cases: relative viability (nuclei count vs DMSO), 5 days (fraction); higher = more cells survive
[1] = compound: COC1=CC=C(C=C1)CN2C=CC3=C2C=C(C=C3)C(=O)NO + CCNC(=O)c1noc(-c2cc(C(C)C)c(O)cc2O)c1-c1ccc(CN2CCOCC2)cc1 [Luminespib] (partner 0.01 µM)
Method in brief: (§1)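 Relative viability is defined as nuclei in treated wells over nuclei in vehicle wells. Duplicate plates were run and medians reported. Lung cancer cell lines in 1536-well plates were dosed by pin tool one day after seeding, with one drug or with a fixed anchor-drug dose plus five library-drug doses (not always all listed) in √10 steps, and nuclei were counted after 5 days.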

Veliparib + AZD7762 = compound: C[C@]1(c2nc3c(C(N)=O)cccc3[nH]2)CCCN1 [Veliparib] + NC(=O)Nc1cc(-c2cccc(F)c2)sc1C(=O)N[C@H]1CCCNC1 [AZD7762] (partner 0.2 µM)
Method in brief: as §1

Veliparib + Pictilisib = compound: C[C@]1(c2nc3c(C(N)=O)cccc3[nH]2)CCCN1 [Veliparib] + CS(=O)(=O)N1CCN(Cc2cc3nc(-c4cccc5[nH]ncc45)nc(N4CCOCC4)c3s2)CC1 [Pictilisib] (partner 1 µM)
Method in brief: as §1

[2] = compound: COC1=CC=C(C=C1)CN2C=CC3=C2C=C(C=C3)C(=O)NO + O=C(c1cc(Cc2n[nH]c(=O)c3ccccc23)ccc1F)N1CCN(C(=O)C2CC2)CC1 [Olaparib] (partner 8 µM)
Method in brief: as §1

NCI-H1915
relative viability ([1]; first compound 0.08 µM): 0.646
relative viability ([1]; first compound 0.253 µM): 0.812
relative viability ([1]; first compound 0.8 µM): 0.885
relative viability ([1]; first compound 2.53 µM): 0.84
relative viability ([1]; first compound 8 µM): 0.768
relative viability (Veliparib + AZD7762; first compound 0.02 µM): 0.661
relative viability (Veliparib + AZD7762; first compound 0.06325 µM): 0.643
relative viability (Veliparib + AZD7762; first compound 0.2 µM): 0.517
relative viability (Veliparib + AZD7762; first compound 0.6325 µM): 0.556
relative viability (Veliparib + AZD7762; first compound 2 µM): 0.519
relative viability (Veliparib + Pictilisib; first compound 0.02 µM): 0.989
relative viability (Veliparib + Pictilisib; first compound 0.06325 µM): 0.87
relative viability (Veliparib + Pictilisib; first compound 0.2 µM): 0.727
relative viability (Veliparib + Pictilisib; first compound 0.6325 µM): 0.808
relative viability (Veliparib + Pictilisib; first compound 2 µM): 0.86
relative viability ([2]; first compound 0.08 µM): 0.233
relative viability ([2]; first compound 0.253 µM): 0.26
relative viability ([2]; first compound 0.8 µM): 0.234
relative viability ([2]; first compound 2.53 µM): 0.259
relative viability ([2]; first compound 8 µM): 0.24

CAL-12T
relative viability ([1]; first compound 0.08 µM): 0.163
relative viability ([1]; first compound 0.253 µM): 0.233
relative viability ([1]; first compound 0.8 µM): 0.528
relative viability ([1]; first compound 2.53 µM): 0.452
relative viability ([1]; first compound 8 µM): 0.332
relative viability (Veliparib + AZD7762; first compound 0.02 µM): 0.668
relative viability (Veliparib + AZD7762; first compound 0.06325 µM): 0.591
relative viability (Veliparib + AZD7762; first compound 0.2 µM): 0.661
relative viability (Veliparib + AZD7762; first compound 0.6325 µM): 0.627
relative viability (Veliparib + AZD7762; first compound 2 µM): 0.741
relative viability (Veliparib + Pictilisib; first compound 0.02 µM): 0.439
relative viability (Veliparib + Pictilisib; first compound 0.06325 µM): 0.395
relative viability (Veliparib + Pictilisib; first compound 0.2 µM): 0.522
relative viability (Veliparib + Pictilisib; first compound 0.6325 µM): 0.386
relative viability (Veliparib + Pictilisib; first compound 2 µM): 0.351
relative viability ([2]; first compound 0.08 µM): 0.674
relative viability ([2]; first compound 0.253 µM): 0.675
relative viability ([2]; first compound 0.8 µM): 0.709
relative viability ([2]; first compound 2.53 µM): 0.735
relative viability ([2]; first compound 8 µM): 0.649

NCI-H1437
relative viability ([1]; first compound 0.08 µM): 1
relative viability ([1]; first compound 0.253 µM): 1.13
relative viability ([1]; first compound 0.8 µM): 1.09
relative viability ([1]; first compound 2.53 µM): 1.18
relative viability ([1]; first compound 8 µM): 1.13
relative viability (Veliparib + AZD7762; first compound 0.02 µM): 0.996
relative viability (Veliparib + AZD7762; first compound 0.06325 µM): 1.07
relative viability (Veliparib + AZD7762; first compound 0.2 µM): 1.17
relative viability (Veliparib + AZD7762; first compound 0.6325 µM): 1.13
relative viability (Veliparib + AZD7762; first compound 2 µM): 1.09
relative viability (Veliparib + Pictilisib; first compound 0.02 µM): 0.419
relative viability (Veliparib + Pictilisib; first compound 0.06325 µM): 0.512
relative viability (Veliparib + Pictilisib; first compound 0.2 µM): 0.552
relative viability (Veliparib + Pictilisib; first compound 0.6325 µM): 0.378
relative viability (Veliparib + Pictilisib; first compound 2 µM): 0.362
relative viability ([2]; first compound 0.08 µM): 0.603
relative viability ([2]; first compound 0.253 µM): 0.635
relative viability ([2]; first compound 0.8 µM): 0.626
relative viability ([2]; first compound 2.53 µM): 0.676
relative viability ([2]; first compound 8 µM): 0.618

HCC-44
relative viability ([1]; first compound 0.08 µM): 0.908
relative viability ([1]; first compound 0.253 µM): 1.05
relative viability ([1]; first compound 0.8 µM): 1.01
relative viability ([1]; first compound 2.53 µM): 0.936
relative viability ([1]; first compound 8 µM): 0.837
relative viability (Veliparib + AZD7762; first compound 0.02 µM): 1.04
relative viability (Veliparib + AZD7762; first compound 0.06325 µM): 0.913
relative viability (Veliparib + AZD7762; first compound 0.2 µM): 0.936
relative viability (Veliparib + AZD7762; first compound 0.6325 µM): 0.934
relative viability (Veliparib + AZD7762; first compound 2 µM): 1.07
relative viability (Veliparib + Pictilisib; first compound 0.02 µM): 0.63
relative viability (Veliparib + Pictilisib; first compound 0.06325 µM): 0.566
relative viability (Veliparib + Pictilisib; first compound 0.2 µM): 0.577
relative viability (Veliparib + Pictilisib; first compound 0.6325 µM): 0.544
relative viability (Veliparib + Pictilisib; first compound 2 µM): 0.644
relative viability ([2]; first compound 0.08 µM): 0.974
relative viability ([2]; first compound 0.253 µM): 0.931
relative viability ([2]; first compound 0.8 µM): 1.01
relative viability ([2]; first compound 2.53 µM): 1
relative viability ([2]; first compound 8 µM): 1.06
